In publication PMC2648833 (Biochemistry, 2008):

Experiments:
Test in all cases: […] release, TLC
Assay type in all cases: biochemical
Details in all cases: labelled compound; 1 mM ATP, 2 mM MgCl2, salmon sperm DNA, Tris-HCl pH 8.0, 37 °C
[1] = molecular target: UvrD2 (MsmUvrD2), full-length (Mycolicibacterium smegmatis, UniProt A0QTT0, C614A/C617A)
[2] = molecular target: UvrD2-(1-630) (ΔHRDC) (Mycolicibacterium smegmatis, UniProt A0QTT0)
[3] = molecular target: UvrD2 (MsmUvrD2), full-length (Mycolicibacterium smegmatis, UniProt A0QTT0)

Nc1ncnc2c1ncn2[C@@H]1O[C@H](COP(=O)(O)OP(=O)(O)OP(=O)(O)O)[C@@H](O)[C@H]1O [ATP]
32Pi release, TLC [1]: The paired cysteine mutations had no deleterious effect on DNA-dependent ATPase specific activity
32Pi release, TLC [2]: The two proteins displayed virtually identical specific activity for ATP hydrolysis
32Pi release, TLC [3]: The two proteins displayed virtually identical specific activity for ATP hydrolysis
